According to paper PMC7413254 (Nature Communications, 2020):
Where two headings read alike, the source gives them in different places.

What was measured:
[1] = molecular target: T1, PfCRT^3D7 (Plasmodium falciparum, UniProt Q8IBZ9); test: cell-based; type: cell-based; settings: total [3H]CQ transport; for inhibition at 500 µM: [test solute] = 0.5 mM; for inhibition at 1000 µM: [test solute] = 1 mM; for inhibition at 2000 µM: [test solute] = 2 mM
Outline: (§1)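 Using pH 5.5 ND96 at 27.5 °C, uptake is followed for 1.5 h, stopped with ice-cold buffer, and quantified as accumulated radioactivity per oocyte after SDS lysis.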

[2] = test system: non-expressing oocytes; test: cells; type: cell-based, Xenopus laevis; settings: Xenopus laevis, total [3H]CQ transport; for inhibition at 500 µM: [test solute] = 0.5 mM; for inhibition at 1000 µM: [test solute] = 1 mM; for inhibition at 2000 µM: [test solute] = 2 mM
Outline: as §1

[3] = test system: non-expressing oocytes; type: cell-based, Xenopus laevis; settings: total [3H]CQ transport; for Uptake of [3H]CQ (% non-expressing oocyte control), trans-stimulation: non-expressing oocytes, normalised to the oocyte type control; for Uptake of [3H]CQ (% PfCRTDd2 control), trans-stimulation, non-expressing oocytes: mean ± SEM, SEM
Outline: (§2)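 Oocytes (ten per treatment, ≥4 independent frogs/days) were preloaded by injecting VF-6 in 25 nL ND96 at pH 5.0, 5.5, 6.0 or 7.0, or Na^+-free choline buffer, then uptake run 1.5 h, 27.5 °C, ND96 pH 5.5 by default. Internal concentrations assumed ~400 nL oocyte volume.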

[4] = molecular target: T2, PfCRT^Ecu1110 (Plasmodium falciparum, UniProt Q9N623, A220S/I356L/K76T/N326D); test: [3H]CQ uptake into Xenopus oocytes, cis-inhibition by unlabelled solute; type: cell-based
T2 sequence (Q9N623 whole entry A220S/I356L/K76T/N326D): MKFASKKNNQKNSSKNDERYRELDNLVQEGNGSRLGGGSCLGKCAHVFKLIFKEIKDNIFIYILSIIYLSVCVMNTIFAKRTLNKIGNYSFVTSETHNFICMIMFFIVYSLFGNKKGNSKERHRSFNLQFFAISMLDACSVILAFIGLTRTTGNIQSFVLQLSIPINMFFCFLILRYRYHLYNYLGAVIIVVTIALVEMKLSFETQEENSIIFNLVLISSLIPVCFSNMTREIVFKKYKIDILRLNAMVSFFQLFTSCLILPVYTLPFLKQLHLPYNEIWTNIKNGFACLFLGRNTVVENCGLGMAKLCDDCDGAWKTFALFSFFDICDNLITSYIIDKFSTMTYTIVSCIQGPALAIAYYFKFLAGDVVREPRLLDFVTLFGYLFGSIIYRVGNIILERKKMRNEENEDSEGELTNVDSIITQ
Outline: as §1

[5] = molecular target: T3, PfCRT^Dd2 (Plasmodium falciparum, UniProt Q9N623, A220S/I356T/K76T/M74I/N326S/N75E/Q271E/R371I); test: as above; type: cell-based
T3 sequence (Q9N623 whole entry A220S/I356T/K76T/M74I/N326S/N75E/Q271E/R371I): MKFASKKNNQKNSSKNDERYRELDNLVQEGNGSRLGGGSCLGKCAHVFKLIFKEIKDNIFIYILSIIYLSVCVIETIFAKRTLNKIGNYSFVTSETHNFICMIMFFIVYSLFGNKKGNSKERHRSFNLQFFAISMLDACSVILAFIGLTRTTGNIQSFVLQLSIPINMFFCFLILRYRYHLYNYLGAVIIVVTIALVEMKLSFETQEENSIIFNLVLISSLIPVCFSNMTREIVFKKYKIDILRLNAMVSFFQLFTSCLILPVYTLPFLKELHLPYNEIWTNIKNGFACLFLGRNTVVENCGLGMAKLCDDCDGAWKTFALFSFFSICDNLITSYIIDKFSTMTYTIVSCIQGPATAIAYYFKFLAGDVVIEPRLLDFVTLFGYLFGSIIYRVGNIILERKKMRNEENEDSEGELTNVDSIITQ
Outline: as §1

[6] = molecular target: T1, PfCRT^3D7; test: cell-based; type: cell-based
Outline: as §2

[7] = molecular target: T2, PfCRT^Ecu1110; test: cell-based; type: cell-based; settings: […]
Outline: as §2

[8] = molecular target: T4, PfNT1 (Plasmodium falciparum, UniProt Q8IDM6); test: cell-based; type: cell-based; settings: for activity at 5000 µM: total [3H]CQ transport
T4 construct: expressed in transfected cells; host or cells: Xenopus laevis oocytes (stage V-VI), cRNA-injected
T4 sequence (Q8IDM6 whole entry): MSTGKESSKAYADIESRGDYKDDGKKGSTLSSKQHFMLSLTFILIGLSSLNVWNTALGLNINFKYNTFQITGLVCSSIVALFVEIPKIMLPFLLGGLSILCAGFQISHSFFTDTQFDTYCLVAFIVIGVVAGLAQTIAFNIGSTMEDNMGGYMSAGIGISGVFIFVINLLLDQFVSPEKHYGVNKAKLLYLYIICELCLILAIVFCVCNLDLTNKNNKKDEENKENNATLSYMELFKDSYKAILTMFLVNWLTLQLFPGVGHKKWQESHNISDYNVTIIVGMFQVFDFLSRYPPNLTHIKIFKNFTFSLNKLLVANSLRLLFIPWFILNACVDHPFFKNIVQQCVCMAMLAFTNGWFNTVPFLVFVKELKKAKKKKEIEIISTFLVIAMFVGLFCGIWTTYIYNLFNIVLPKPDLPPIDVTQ
Outline: as §2

[9] = molecular target: T3, PfCRT^Dd2; test: cell-based; type: cell-based; settings: […]; for activity at 45000 µM: [test solute]i = 45 mM (30 mM for some solutes due to solubility)
Outline: as §2

[10] = test system: PfCRT; test: Test of solutes as potential co-substrates for influx of VF-6 via PfCRT into the oocyte; type: cell-based, Plasmodium falciparum; design: key: X: Compounds that have been tested as potential co-substrates but are not required for influx of VF-6 via PfCRT into the oocyte; settings: X = tested
[11] = test system: PfCRT; test: Potential co-substrates tested for influx of VF-6 via PfCRT into the oocyte; type: cell-based, Plasmodium falciparum; design: key: X: Compounds that have been tested as potential co-substrates but are not required for influx of VF-6 via PfCRT into the oocyte
[12] = PfCRT3D7 oocytes, normalised to the oocyte type control, read-out: Uptake of [3H]CQ (% PfCRT3D7 control), cis-inhibition
[13] = mean ± SEM, SEM, read-out: Uptake of [3H]CQ (% PfCRTDd2 control), cis-inhibition, PfCRT3D7
[14] = Oocyte, mean ± SEM, SEM, read-out: Uptake of [3H]CQ (% PfCRTDd2 control), cis-inhibition, non-expressing oocytes
[15] = non-expressing oocytes, normalised to the oocyte type control, read-out: Uptake of [3H]CQ (% non-expressing oocyte control), cis-inhibition
[16] = read-out: PfCRT-mediated [3H]CQ transport, cis-inhibition (% PfCRTEcu1110 control)
[17] = read-out: Uptake of [3H]CQ (% PfCRTDd2 control), cis-inhibition, PfCRTEcu1110, SEM
[18] = read-out: Uptake of [3H]CQ (% PfCRTEcu1110 control), cis-inhibition
[19] = read-out: [3H]CQ transport (% PfCRTEcu1110 control), cis-inhibition, PfCRTEcu1110, SEM
[20] = read-out: PfCRT-mediated [3H]CQ transport, cis-inhibition (% PfCRTDd2 control)
[21] = read-out: Uptake of [3H]CQ (% PfCRTDd2 control), cis-inhibition, PfCRTDd2, SEM

T1 sequence (Q8IBZ9 59-398): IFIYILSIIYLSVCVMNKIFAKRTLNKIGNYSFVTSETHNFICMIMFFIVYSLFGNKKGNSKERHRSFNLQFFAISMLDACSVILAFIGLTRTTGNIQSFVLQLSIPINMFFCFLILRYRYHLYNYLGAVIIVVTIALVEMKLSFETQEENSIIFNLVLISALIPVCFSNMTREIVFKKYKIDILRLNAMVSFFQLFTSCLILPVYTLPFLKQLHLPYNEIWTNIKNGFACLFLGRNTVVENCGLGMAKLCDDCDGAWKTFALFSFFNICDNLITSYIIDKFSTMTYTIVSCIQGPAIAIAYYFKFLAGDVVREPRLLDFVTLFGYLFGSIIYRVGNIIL

## N[C@@H](Cc1ccccc1)C(=O)O [L-phenylalanine]
[1]; [12]
  inhibition at 500 µM: 99 ± 4.3%
  inhibition at 1000 µM: 99 ± 5.2%
  inhibition at 2000 µM: 100 ± 3.6%
[1]; [13]
  inhibition at 500 µM: 3.1 ± 0.06%
  inhibition at 1000 µM: 3.1 ± 0.06%
  inhibition at 2000 µM: 3.1 ± 0.07%
[2]; [14]
  inhibition at 500 µM: 3 ± 0.06%
  inhibition at 1000 µM: 2.7 ± 0.04%
  inhibition at 2000 µM: 2.3 ± 0.1%
[2]; [15]
  inhibition at 500 µM: 98 ± 6.3%
  inhibition at 1000 µM: 100 ± 4.6%
  inhibition at 2000 µM: 99 ± 3.2%
[3]; [test solute]i = 5 mM
  Uptake of [3H]CQ (% non-expressing oocyte control), trans-stimulation: 98 ± 2.6 % non-expressing oocyte control
[3]; [test solute]i = 45 mM (30 mM for some solutes due to solubility)
  Uptake of [3H]CQ (% non-expressing oocyte control), trans-stimulation: 99 ± 2.7 % non-expressing oocyte control
[3]; [test solute]i = 5 mM (intracellular)
  Uptake of [3H]CQ (% PfCRTDd2 control), trans-stimulation, non-expressing oocytes: 2.4 ± 0.03 % PfCRTDd2 control
[3]; [test solute]i = 45 mM (intracellular; 30 mM for some solutes due to solubility)
  Uptake of [3H]CQ (% PfCRTDd2 control), trans-stimulation, non-expressing oocytes: 2.2 ± 0.09 % PfCRTDd2 control
[4]; [16]
  inhibition at 500 µM: 95 ± 3.6%
  inhibition at 1000 µM: 95 ± 0.3%
[4]; [17]
  inhibition at 500 µM: 32 ± 2.5%
  inhibition at 1000 µM: 32 ± 1.5%
  inhibition at 2000 µM: 32 ± 1.5%
[4]; [18]
  inhibition at 500 µM: 97 ± 2.1%
  inhibition at 1000 µM: 96 ± 1.8%
  inhibition at 2000 µM: 98 ± 2.4%
[4]; [19]
  inhibition at 500 µM: 29 ± 0.7%
  inhibition at 1000 µM: 29 ± 1.7%
  inhibition at 2000 µM: 29 ± 0.5%
[5]; [20]
  inhibition at 500 µM: 94 ± 2.7%
  inhibition at 1000 µM: 95 ± 2.7%
[5]; [21]
  inhibition at 500 µM: 96 ± 3.6%
  inhibition at 1000 µM: 97 ± 3.3%
  inhibition at 2000 µM: 98 ± 2.2%
[6]; PfCRT3D7 oocytes, [test solute]i = 5 mM, total [3H]CQ transport, normalised to the oocyte type control, read-out: Uptake of [3H]CQ (% PfCRT3D7 control), trans-stimulation
  activity at 5000 µM: 98 ± 3.3%
[6]; SEM
  [3H]CQ transport (% PfCRT3D7 control), trans-stimulation, PfCRT3D7: 0.3 ± 0.01 % PfCRT3D7 control
[6]; [test solute]i = 5 mM (intracellular), PfCRT3D7 oocytes, normalised to oocyte type control, read-out: PfCRT-mediated [3H]CQ transport, trans-stimulation (% PfCRT3D7 control)
  activity at 5000 µM: 96 ± 2.8%
[6]; SEM, read-out: Uptake of [3H]CQ (% PfCRTDd2 control), trans-stimulation, PfCRT3D7
  activity at 45000 µM: 3.3 ± 0.05%
[6]; read-out: PfCRT-mediated [3H]CQ transport, trans-stimulation (% PfCRT3D7 control)
  activity at 45000 µM: 96 ± 2.1%
[6]; read-out: Uptake of [3H]CQ (% PfCRT3D7 control), trans-stimulation
  activity at 45000 µM: 98 ± 3%
[6]; total [3H]CQ transport, [test solute]i = 5 mM (intracellular), mean ± SEM, SEM, read-out: Uptake of [3H]CQ (% PfCRTDd2 control), trans-stimulation, PfCRT3D7
  activity at 5000 µM: 3.3 ± 0.01%
[7]; pH 5.5, read-out: PfCRT-mediated [3H]CQ transport, trans-stimulation (% PfCRTEcu1110 control), [test solute]i = 5 mM (intracellular), PfCRTEcu1110 oocytes, normalised to oocyte type control
  activity at 5000 µM: 96 ± 1.9%
[7]; pH 5.5, read-out: Uptake of [3H]CQ (% PfCRTEcu1110 control), trans-stimulation, PfCRTEcu1110 oocytes, [test solute]i = 5 mM, total [3H]CQ transport, normalised to the oocyte type control
  activity at 5000 µM: 98 ± 3.4%
[7]; pH 5.5, read-out: Uptake of [3H]CQ (% PfCRTEcu1110 control), trans-stimulation, PfCRTEcu1110 oocytes, [test solute]i = 45 mM (30 mM for some solutes due to solubility), total [3H]CQ transport, normalised to the oocyte type control
  activity at 45000 µM: 101 ± 3.2%
[7]; read-out: Uptake of [3H]CQ (% PfCRTDd2 control), trans-stimulation, PfCRTEcu1110, total [3H]CQ transport, [test solute]i = 5 mM (intracellular), mean ± SEM, SEM
  activity at 5000 µM: 35 ± 1.3%
[7]; read-out: Uptake of [3H]CQ (% PfCRTDd2 control), trans-stimulation, PfCRTEcu1110, total [3H]CQ transport, [test solute]i = 45 mM (intracellular; 30 mM for some solutes due to solubility), mean ± SEM, SEM
  activity at 45000 µM: 36 ± 1.7%
[8]; PfNT1 oocytes, [test solute]i = 5 mM, normalised to the oocyte type control, read-out: Uptake of [3H]CQ (% PfNT1 control), trans-stimulation
  activity at 5000 µM: 99 ± 2.2%
[8]; SEM, read-out: Uptake of [3H]CQ (% PfCRTDd2 control), trans-stimulation, PfNT1
  activity at 45000 µM: 2.8 ± 0.07%
[8]; read-out: Uptake of [3H]CQ (% PfNT1 control), trans-stimulation
  activity at 45000 µM: 100 ± 2.5%
[8]; [test solute]i = 5 mM (intracellular), mean ± SEM, SEM, read-out: Uptake of [3H]CQ (% PfCRTDd2 control), trans-stimulation, PfNT1
  activity at 5000 µM: 3 ± 0.01%
[9]; pH 5.5, read-out: PfCRT-mediated [3H]CQ transport, trans-stimulation (% PfCRTDd2 control), [test solute]i = 5 mM (intracellular), PfCRTDd2 oocytes, normalised to oocyte type control
  activity at 5000 µM: 99 ± 3.9%
[9]; pH 5.5, read-out: Uptake of [3H]CQ (% PfCRTDd2 control), trans-stimulation, PfCRTDd2, total [3H]CQ transport, [test solute]i = 5 mM (intracellular), mean ± SEM, SEM
  activity at 5000 µM: 101 ± 2.4%
[9]; pH 5.5, read-out: Uptake of [3H]CQ (% PfCRTDd2 control), trans-stimulation, PfCRTDd2 oocytes, [test solute]i = 5 mM, total [3H]CQ transport, normalised to the oocyte type control
  activity at 5000 µM: 101 ± 2.4%
[9]; pH 5.5, read-out: Uptake of [3H]CQ (% PfCRTDd2 control), trans-stimulation, PfCRTDd2 oocytes, total [3H]CQ transport, normalised to the oocyte type control
  activity at 45000 µM: 100 ± 2.2%
[9]; pH 5.5, read-out: [3H]CQ transport (% PfCRTDd2 control), trans-stimulation, PfCRTDd2, trans-stimulation, [test solute]i = 5 mM (injected), PfCRT-mediated component (background subtracted), mean ± SEM, SEM
  activity at 5000 µM: 99 ± 3.9%
[9]; pH 5.5, read-out: [3H]CQ transport (% PfCRTDd2 control), trans-stimulation, PfCRTDd2, trans-stimulation, PfCRT-mediated component (background subtracted), mean ± SEM, SEM
  activity at 45000 µM: 98 ± 3%
[10]
  Tested as potential co-substrate but not required for influx of VF-6 via PfCRT into the oocyte: X
[11]
  Tested as potential co-substrate but not required for influx of VF-6 via PfCRT into the oocyte: X
